In assay [1] the target is T1, MMP-13 catalytic domain (MMP-13CD) (Homo sapiens, UniProt P45452).
T1 construct: The catalytic domain of the MMP-13 enzyme, namely matrix metalloproteinase-13 catalytic domain (“MMP-13CD”)
Briefly: Fluorigenic peptide-1 substrate based assay, MMP-13CD, with/without AcNHOH. The assay is classed as biochemical. Particulars: for IC50 Ratio (±): IC50 with AcNHOH divided by IC50 without; for IC50: FP1 substrate.
Description: The catalytic domain of the MMP-13 enzyme, namely matrix metalloproteinase-13 catalytic domain (“MMP-13CD”), rather than the corresponding full-length enzyme, MMP-13 was used in such assay.
50 mM HEPES buffer (pH 7.0)
2% DMSO (with or without inhibitor test compound)
1. Dispensed 2 μL inhibitor test sample (in 100% DMSO) into well.
2. Added 88 μL assay mixture and mixed well, avoiding bubbles.
3. Initiated reactions with 10 μL of 5 nM MMP-13CD; mixed well, avoiding bubbles.
4. Immediately measured the kinetics of the reactions at room temperature.
Alternatively, an endpoint read can also be used to determine reaction velocity provided the initial fluorescence of the solution, as recorded before addition of enzyme, is subtracted from the final fluorescence of the reaction mixture.

A further assay deals with MMP-13 (Homo sapiens, UniProt P45452). Briefly: TPL (thiopeptolide) assay, MMP-13 (without and with AH). The assay is classed as biochemical.
The target of assay [2] is T2, MMP-12 (Homo sapiens, UniProt P39900). The experiment in a line: TPL (thiopeptolide) assay, MMP-12 (without and with AH). The assay is classed as biochemical. The source says:
(§1) The assays that can be used to evaluate the biological activity of various compounds for inhibiting MMPs are well-known and routinely used by those skilled in the art. They measure the amount by which a test compound reduces the hydrolysis of a thiopeptolide substrate caused by a matrix metalloproteinase enzyme. Such assays are described in detail by Ye et al., in Biochemistry, 1992;31(45): 11231-11235, which is incorporated herein by reference.
(§2) Thiopeptolide substrates show virtually no decomposition or hydrolysis in the absence of a matrix metalloproteinase enzyme. A typical thiopeptolide substrate commonly utilized for assays is Ac-Pro-Leu-Gly-thioester-Leu-Leu-Gly-OEt. A 100 μL assay mixture will contain 50 mM of 2-morpholinoethane sulfonic acid monohydrate (MES, pH 6.0) 10 mM CaCl2, 100 μM thiopeptolide substrate, and 1 mM 5,5′-dithio-bis-(2-nitro-benzoic acid) (DTNB). The thiopeptolide substrate concentration is varied from 10 to 800 μM to obtain Km and Kcat values. The change in absorbance at […] is monitored on a Thermo Max microplate reader (Molecular Devices, Menlo Park, Calif.) at room temperature (22° C.). The calculation of the amount of hydrolysis of the thiopeptolide substrate is based on E412=13600 m^−1 cm^−1 for the DTNB-derived product 3-carboxy-4-nitrothiophenoxide. Assays are carried out with and without matrix metalloproteinase inhibitor compounds, and the amount of hydrolysis is compared for a determination of inhibitory activity of the test compounds.
Although ligand size is not critical, a bulky ligand will block more binding sites of the MMP than a smaller ligand, and may thus prevent potential inhibitors that bind close to, but not at, the functional metal cation from being identified. Suitable ligands are therefore low molecular weight molecules, e.g. acetohydroxamic acid (CH3CONHOH) whose use is preferred.

The target of a further assay is T3, MMP-1 (Homo sapiens, UniProt P03956).
T3 sequence (P03956 100-469): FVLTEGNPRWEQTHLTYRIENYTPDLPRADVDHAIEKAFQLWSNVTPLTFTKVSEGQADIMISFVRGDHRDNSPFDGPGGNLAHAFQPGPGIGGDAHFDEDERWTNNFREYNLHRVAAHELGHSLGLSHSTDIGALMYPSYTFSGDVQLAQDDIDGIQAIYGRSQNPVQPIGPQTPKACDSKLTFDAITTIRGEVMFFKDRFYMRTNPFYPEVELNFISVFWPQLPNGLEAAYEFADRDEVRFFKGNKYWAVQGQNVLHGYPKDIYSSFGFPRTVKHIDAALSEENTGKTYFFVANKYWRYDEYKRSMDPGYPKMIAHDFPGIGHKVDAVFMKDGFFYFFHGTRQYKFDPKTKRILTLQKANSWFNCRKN
Briefly: TPL (thiopeptolide) assay, MMP-1. The assay is classed as biochemical.
Description: as §1, §2

The next assay concerns the target T4, MMP-2 (Homo sapiens, UniProt P08253).
T4 sequence (P08253 110-660): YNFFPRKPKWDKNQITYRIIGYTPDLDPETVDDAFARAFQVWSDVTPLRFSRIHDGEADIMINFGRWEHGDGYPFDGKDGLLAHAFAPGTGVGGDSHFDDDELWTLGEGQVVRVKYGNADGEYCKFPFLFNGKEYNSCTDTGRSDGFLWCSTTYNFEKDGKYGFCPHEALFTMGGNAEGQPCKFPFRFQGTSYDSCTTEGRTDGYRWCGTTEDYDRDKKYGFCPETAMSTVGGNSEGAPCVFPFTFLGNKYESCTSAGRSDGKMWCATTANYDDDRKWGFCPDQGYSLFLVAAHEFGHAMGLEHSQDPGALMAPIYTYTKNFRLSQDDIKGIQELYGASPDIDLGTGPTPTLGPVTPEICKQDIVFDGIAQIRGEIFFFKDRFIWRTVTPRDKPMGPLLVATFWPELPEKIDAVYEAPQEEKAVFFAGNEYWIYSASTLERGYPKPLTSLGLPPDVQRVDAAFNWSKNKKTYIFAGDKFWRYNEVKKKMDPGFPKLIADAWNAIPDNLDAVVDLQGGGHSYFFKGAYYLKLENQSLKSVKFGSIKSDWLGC
The experiment in a line: TPL (thiopeptolide) assay, MMP-2. The assay is classed as biochemical.
Description: as §1, §2

In another assay the target is MMP-14 (Homo sapiens, UniProt P50281). Briefly: TPL (thiopeptolide) assay, MMP-14. The assay is classed as biochemical.
Description: as §1, §2

The target of the next assay is MMP-3 (Homo sapiens, UniProt P08254). The experiment in a line: TPL (thiopeptolide) assay, MMP-3. It counts as biochemical.
Description: as §1, §2

In the next assay the target is MMP-9 (Homo sapiens, UniProt P14780). Briefly: TPL (thiopeptolide) assay, MMP-9. The assay is classed as biochemical.
Description: as §1, §2

The next assay deals with MMP-8 (Homo sapiens, UniProt P22894). The experiment in a line: TPL (thiopeptolide) assay, MMP-8. It counts as biochemical.
Description: as §1
as §2, with “Assays are carried out with and without matrix metalloproteinase inhibitor compounds, and the amount of hydrolysis is compared for a determination of inhibitory activity of the test compounds.” left out

The target in another assay is T5, MMP-7 (Homo sapiens, UniProt P09237).
T5 sequence (P09237 95-267): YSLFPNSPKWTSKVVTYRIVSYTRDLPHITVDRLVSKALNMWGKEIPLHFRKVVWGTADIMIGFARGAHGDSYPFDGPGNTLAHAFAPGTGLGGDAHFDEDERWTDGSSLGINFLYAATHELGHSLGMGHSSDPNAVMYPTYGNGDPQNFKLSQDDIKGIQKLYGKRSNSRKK
The experiment in a line: TPL (thiopeptolide) assay, MMP-7. It counts as biochemical.
Description: as §1
as §2, with “Assays are carried out with and without matrix metalloproteinase inhibitor compounds, and the amount of hydrolysis is compared for a determination of inhibitory activity of the test compounds.” left out

Assay [3] addresses T2, MMP-12. Particulars: literature; cited from earlier work.
Where [4] appears, read: TPL assay, without AH, read-out: IC50 MMP-13.
Where [5] appears, read: TPL assay, without AH, read-out: IC50 MMP-12.
Setting [6] is: in presence of acetohydroxamic acid (+AH), read-out: IC50 MMP12 (+AH).

Here are results for 17 molecules from patent US20040171543A1, “Matrix metalloproteinase inhibitors and methods for identification of lead compounds” (priority 2002, published 2004).

The structures appear in SMILES notation. Counter-ions that a name gives are not always drawn. Like-named read-outs stand apart in the source and are kept apart here. Marks after values point to notes of the source that are not given here.

T2 sequence (P39900 106-470): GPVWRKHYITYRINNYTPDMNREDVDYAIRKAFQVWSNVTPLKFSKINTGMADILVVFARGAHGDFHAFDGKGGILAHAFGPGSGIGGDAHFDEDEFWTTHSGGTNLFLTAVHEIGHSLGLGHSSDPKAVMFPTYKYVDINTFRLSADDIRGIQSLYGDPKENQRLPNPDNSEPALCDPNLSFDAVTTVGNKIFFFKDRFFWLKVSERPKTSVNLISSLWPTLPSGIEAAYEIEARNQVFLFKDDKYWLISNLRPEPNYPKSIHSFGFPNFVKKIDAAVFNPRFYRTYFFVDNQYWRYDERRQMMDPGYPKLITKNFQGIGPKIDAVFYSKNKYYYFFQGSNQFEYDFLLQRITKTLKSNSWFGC
Sequence of MMP-3 (P08254 100-477): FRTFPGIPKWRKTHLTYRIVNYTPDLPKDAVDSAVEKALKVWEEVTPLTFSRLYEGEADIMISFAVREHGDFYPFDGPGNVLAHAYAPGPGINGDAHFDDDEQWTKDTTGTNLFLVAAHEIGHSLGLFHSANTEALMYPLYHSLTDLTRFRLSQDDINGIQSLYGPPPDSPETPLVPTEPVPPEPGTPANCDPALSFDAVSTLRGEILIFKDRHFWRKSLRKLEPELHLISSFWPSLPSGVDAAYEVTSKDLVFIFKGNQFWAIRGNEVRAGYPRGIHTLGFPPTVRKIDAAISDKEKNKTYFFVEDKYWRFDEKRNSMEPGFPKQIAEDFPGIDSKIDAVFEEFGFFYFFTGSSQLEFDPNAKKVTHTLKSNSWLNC
Sequence of MMP-9 (P14780 94-707): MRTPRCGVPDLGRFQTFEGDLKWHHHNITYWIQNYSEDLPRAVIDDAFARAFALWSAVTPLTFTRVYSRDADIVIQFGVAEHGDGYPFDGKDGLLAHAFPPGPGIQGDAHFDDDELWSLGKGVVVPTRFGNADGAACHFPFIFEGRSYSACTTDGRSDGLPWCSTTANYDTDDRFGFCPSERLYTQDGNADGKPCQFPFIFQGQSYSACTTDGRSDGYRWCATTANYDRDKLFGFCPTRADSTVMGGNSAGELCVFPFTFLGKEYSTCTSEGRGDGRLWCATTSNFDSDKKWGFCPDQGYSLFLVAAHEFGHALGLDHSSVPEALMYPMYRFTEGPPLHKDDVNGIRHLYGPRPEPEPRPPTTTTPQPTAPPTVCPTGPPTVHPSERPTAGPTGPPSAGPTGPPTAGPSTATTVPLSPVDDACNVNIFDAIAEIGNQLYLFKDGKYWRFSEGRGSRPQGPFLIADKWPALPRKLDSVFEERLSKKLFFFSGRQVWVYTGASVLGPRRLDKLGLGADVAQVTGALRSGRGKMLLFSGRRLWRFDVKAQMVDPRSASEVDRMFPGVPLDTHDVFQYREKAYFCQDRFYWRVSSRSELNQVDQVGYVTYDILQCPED
Sequence of MMP-8 (P22894 101-467): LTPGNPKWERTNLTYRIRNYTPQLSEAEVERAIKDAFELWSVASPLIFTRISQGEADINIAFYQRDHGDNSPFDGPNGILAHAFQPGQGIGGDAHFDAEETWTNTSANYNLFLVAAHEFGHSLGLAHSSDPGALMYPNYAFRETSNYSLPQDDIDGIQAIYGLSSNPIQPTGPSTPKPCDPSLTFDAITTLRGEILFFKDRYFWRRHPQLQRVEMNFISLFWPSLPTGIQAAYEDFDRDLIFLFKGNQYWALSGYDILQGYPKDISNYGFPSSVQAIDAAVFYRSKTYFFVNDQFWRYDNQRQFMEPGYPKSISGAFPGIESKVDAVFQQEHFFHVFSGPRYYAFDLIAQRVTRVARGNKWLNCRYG

For the molecule `Cc1c(-c2ccc(-n3ccnc3)cc2)[nH][nH]c1=O` [Entry 5], the “IC50 Ratio (±)” value in [1] came to 1.16.
Same read-out and setting: as for `COc1ccc(NC(=O)Nc2ccc3nc(C)cc(N)c3c2)cc1` [Entry 3], the figure is 0.56.
In the case of `O=C(NC[C@H]1CC[C@H](C(=O)O)CC1)c1cc(-c2ccc(-c3ccncc3)cc2)ns1` [Example 8, Trans 3-[4-(4-pyridyl)phenyl]-5-isothiazole carboxamido methyl-cyclohexane carboxylic acid, Potassium Salt], the IC50 at MMP-13 (setting [4]) stood at 1.9 µM; on MMP-12 [2] (setting [5]) it was 0.57 µM; at MMP-12 [2] (setting [6]), 0.015 µM.
`COc1cccc(COC(=O)c2cc3c(=O)n(Cc4ccc(-c5nn[nH]n5)cc4)c(=O)[nH]c3s2)c1` [Example 3, 2,4-Dioxo-3-[4-(2H-tetrazol-5-yl)-benzyl]-1,2,3,4-tetrahydro-thieno[2,3-d]pyrimidine-6-carboxylic acid 3-methoxy-benzyl ester]: the IC50 on MMP-1 (read-out: IC50 MMP-1) is over 100 µM; at MMP-13 (setting [4]), 0.0012 µM; at MMP-12 [2] (setting [5]) it was 3.4 µM; on MMP-2 (read-out: IC50 MMP-2) it was over 100 µM; on MMP-14 (read-out: IC50 MMP-14), over 100 µM; on MMP-3 (read-out: IC50 MMP-3), 0.16 µM. The IC50 at MMP-9 (read-out: IC50 MMP-9) was over 100 µM.
`O=C(O)c1ccc(CNC(=O)c2cc(-c3ccc(OC(F)(F)F)cc3)cs2)cc1` [Example 5, 4-({[4-(4-Trifluoromethoxyphenyl)thien-2-yl]carboxamido}methyl) benzoic acid]: the IC50 on MMP-1 (read-out: IC50 MMP-1) is over 30 µM; on MMP-13 (setting [4]), 0.00014 µM; at MMP-13 (in presence of acetohydroxamic acid (+AH), read-out: IC50 MMP13 (+AH)), 0.063 µM; at MMP-12 [2] (setting [5]), over 0.4 µM; at MMP-12 [2] (setting [6]), 0.012 µM; at MMP-2 (read-out: IC50 MMP-2) it was over 30 µM. In addition, the IC50 against MMP-8, on MMP-7 (read-out: IC50 MMP-7), at MMP-14 (read-out: IC50 MMP-14), at MMP-3 (read-out: IC50 MMP-3) and at MMP-9 (read-out: IC50 MMP-9) was over 30 µM throughout.
Take `COc1ccc(S(=O)(=O)N(Cc2cccnc2)[C@@H](C(=O)NO)C(C)C)cc1` [CGS27023A]: the IC50 at MMP-12 [3] is 0.002 µM.
Turning to `COc1ccc(C(=O)NCc2cccnc2)cc1C(=O)NCc1cccnc1` [Entry 7], the “IC50 Ratio (±)” value in assay [1] came out at 0.41.
Still for that read-out and setting: as for `Nc1ccc(-c2ccc(S(N)(=O)=O)cc2)cc1` [Entry 1], the figure is 0.47^a.
Consider `CN1c2ccc(C3CN(Cc4ccccc4)C(=O)CO3)cc2CS1(=O)=O` (stereo not drawn) [Example 7, 4-Benzyl-6-(1-methyl-2,2-dioxo-2,3-dihydro-1H-2λ^6-benzo[c]isothiazol-5-yl)morpholin-3-one], for which the IC50 at MMP-13 (setting [4]) worked out at 3.6 µM; on MMP-12 [2] (setting [5]), 17 µM; at MMP-12 [2] (setting [6]) it was 0.27 µM.
With `Cc1cc(O)nc(SCc2ccc(Cl)cc2)n1` [Entry 4], the “IC50 Ratio (±)” value in assay [1] was 0.07^a.
The same measure, in the same setting: to `NS(=O)(=O)c1ccc(-c2ccc([N+](=O)O)cc2)cc1` [Entry 2] belongs 0.04.
Consider `O=C(NC(=S)NCc1cc(-c2ccccc2)no1)c1ccccc1` [Entry 10], for which the IC50 in assay [1] (0 mM AcNHOH, read-out: Without AcNHOH IC50) was 2.3 µM; in [1] (15 mM AcNHOH (1 Kd), read-out: With AcNHOH IC50) it was 0.2 µM. In addition, in assay [1], the “IC50 Ratio (±)” value came to 0.08.
For `COc1ccc(CC#Cc2ccc3ncn(Cc4ccc(C(=O)O)cc4)c(=O)c3c2)cc1` [Example 1, 4-{6-[3-(4-Methoxy-phenyl)-prop-1-ynyl]-4-oxo-4H-quinazolin-3-ylmethyl}-benzoic acid], the IC50 was over 100 µM on MMP-1 (read-out: IC50 MMP-1); over 30 µM at MMP-12 [2] (setting [5]); over 100 µM on MMP-2 (read-out: IC50 MMP-2); over 100 µM at MMP-14 (read-out: IC50 MMP-14); 0.22 µM at MMP-3 (read-out: IC50 MMP-3); over 30 µM on MMP-9 (read-out: IC50 MMP-9).
On to `CCOC(=O)/C=C/c1ccc(-n2ccnc2)cc1` [Entry 6], for which the “IC50 Ratio (±)” value in assay [1] worked out at 0.82.
Turning to `COc1ccc(CC#Cc2ccc3c(c2)c(=O)n(Cc2ccc(C(=O)O)cc2)c(=O)n3C)cc1` [Example 2, 4-{6-[3-(4-Methoxy-phenyl)-prop-1-ynyl]-1-methyl-2,4-dioxo-1,4-dihydro-2H-quinazolin-3-ylmethyl}-benzoic acid], the IC50 was over 100 µM at MMP-1 (read-out: IC50 MMP-1); 0.00018 µM at MMP-13 (setting [4]); over 100 µM at MMP-12 [2] (setting [5]); over 100 µM on MMP-2 (read-out: IC50 MMP-2); over 100 µM on MMP-14 (read-out: IC50 MMP-14); 0.83 µM at MMP-3 (read-out: IC50 MMP-3). For the same molecule, at MMP-9 (read-out: IC50 MMP-9), the IC50 was over 30 µM.
For `O=C(O)C[C@@H](NC(=O)c1cc(-c2ccc(-c3ccncc3)cc2)cs1)c1ccccc1` [Example 6, (2?)-3-({[4-1(pyridin-4-yl)phényl]-thièn-2-yl]carboxamido)(phényl)propanoic acid hydrochloride], the IC50 was over 101 µM on MMP-1 (read-out: IC50 MMP-1); 0.27 µM at MMP-13; 0.014 µM at MMP-12 [2] (setting [5]); 0.004 µM at MMP-12 [2] (setting [6]); over 0.39 µM at MMP-2 (read-out: IC50 MMP-2); over 0.98 µM at MMP-8. Moreover, the IC50 at MMP-3 (read-out: IC50 MMP-3) was over 1.7 µM; at MMP-9 (read-out: IC50 MMP-9), over 1.4 µM.
Take `O=C(OCc1ccccc1)c1ccc2[nH]c(=O)n(Cc3ccccc3)c(=O)c2c1` [Example 4, 3-Benzyl-2,4-dioxo-1,2,3,4-tetrahydro-quinazoline-6-carboxylic acid benzyl ester]: the IC50 at MMP-1 (unit inferred, read-out: Activities measured by TPL assays, MMP-1) was over 30 µM; on MMP-13 (TPL assay, unit inferred, read-out: Activities measured by TPL assays, MMP-13) it was 0.0295 µM; at MMP-2 (unit inferred, read-out: Activities measured by TPL assays, MMP-2), over 100 µM; at MMP-7 (unit inferred, read-out: Activities measured by TPL assays, MMP-7), over 30 µM; on MMP-14 (unit inferred, read-out: Activities measured by TPL assays, MMP-14), over 100 µM; at MMP-3 (unit inferred, read-out: Activities measured by TPL assays, MMP-3), over 30 µM. Moreover, the IC50 at MMP-9 (unit inferred, read-out: Activities measured by TPL assays, MMP-9) is over 100 µM.
